Test results published in the CheMixHub ionic liquid set.

Assay: xn = mol fraction of the nth substance listed

CCCCCC[n+]1ccn(C)c1.O=[N+]([O-])[O-] + CCCC(C)O
100 kPa
Conditions	viscosity [mPa·s]
293.15 K, x1 = 0.2408	23.7
293.15 K, x1 = 0.7401	258
293.15 K, x1 = 0.8508	417
298.15 K, x1 = 0.1609	10.16
303.15 K, x1 = 0.0814	4.67
303.15 K, x1 = 0.7401	113.5
308.15 K, x1 = 0.7401	75.3
313.15 K, x1 = 0.0814	2.69
323.15 K, x1 = 0.0814	1.71
323.15 K, x1 = 0.6509	16.03
323.15 K, x1 = 1	110.9

CCCC[n+]1ccn(C)c1.O=[N+]([O-])[O-] + CCCC[n+]1ccn(C)c1.[Cl-]
Conditions	viscosity [mPa·s]
293 K, 101 kPa, x2 = 0.2549	223

CCOS(=O)(=O)[O-].CC[n+]1ccn(C)c1 + CCO + O
298.15 K, 101 kPa
Conditions	viscosity [mPa·s]
x2 = 0.0425, x3 = 0.9493	1.473
x2 = 0.0462, x3 = 0.9365	1.767
x2 = 0.054, x3 = 0.9172	2.239
x2 = 0.0603, x3 = 0.8923	2.787
x2 = 0.0723, x3 = 0.8613	3.311
x2 = 0.0829, x3 = 0.8208	4.237
x2 = 0.0885, x3 = 0.9037	2.015
x2 = 0.0898, x3 = 0.1724	43.71
x2 = 0.0906, x3 = 0.3653	26.4
x2 = 0.1018, x3 = 0.8819	2.162
x2 = 0.1162, x3 = 0.8569	2.603
x2 = 0.1307, x3 = 0.8254	2.848
x2 = 0.1473, x3 = 0.8454	2.302
x2 = 0.1532, x3 = 0.7862	3.265
x2 = 0.1618, x3 = 0.823	2.558
x2 = 0.1776, x3 = 0.736	3.981
x2 = 0.1798, x3 = 0.7952	2.666
x2 = 0.1867, x3 = 0.3267	19.71
x2 = 0.203, x3 = 0.4762	11.23
x2 = 0.2036, x3 = 0.7562	3.061
x2 = 0.213, x3 = 0.6721	4.695
x2 = 0.2156, x3 = 0.7777	2.443
x2 = 0.2354, x3 = 0.7098	3.148
x2 = 0.2358, x3 = 0.7503	2.537
x2 = 0.2581, x3 = 0.7192	2.751
x2 = 0.2884, x3 = 0.6757	2.836
x2 = 0.2972, x3 = 0.6968	2.342
x2 = 0.3097, x3 = 0.4125	8.578
x2 = 0.3172, x3 = 0.5831	4.026
x2 = 0.3196, x3 = 0.668	2.391
x2 = 0.3235, x3 = 0.6281	3.109
x2 = 0.3439, x3 = 0.6361	2.653
x2 = 0.3528, x3 = 0.1226	18.65
x2 = 0.354, x3 = 0.5781	3.217
x2 = 0.3804, x3 = 0.5884	2.55
x2 = 0.3862, x3 = 0.6086	2.334
x2 = 0.4044, x3 = 0.3559	6.856
x2 = 0.4138, x3 = 0.5756	2.347
x2 = 0.4195, x3 = 0.5389	2.799
x2 = 0.4403, x3 = 0.5426	2.299
x2 = 0.4582, x3 = 0.4849	2.967
x2 = 0.4657, x3 = 0.1012	12.87
x2 = 0.4793, x3 = 0.4944	2.444
x2 = 0.4911, x3 = 0.5046	2.027
x2 = 0.521, x3 = 0.4447	2.385
x2 = 0.5486, x3 = 0.4376	2.109
x2 = 0.5636, x3 = 0.3905	2.443
x2 = 0.6042, x3 = 0.159	5.533
x2 = 0.6339, x3 = 0.3399	1.976
x2 = 0.6484, x3 = 0.2101	3.5
x2 = 0.6523, x3 = 0.3414	1.735
x2 = 0.6548, x3 = 0.0654	6.067
x2 = 0.6675, x3 = 0.2976	2.007
x2 = 0.7086, x3 = 0.2767	1.737
x2 = 0.7178, x3 = 0.241	2.045
x2 = 0.7723, x3 = 0.2038	1.728
x2 = 0.8545, x3 = 0.0276	2.451
x2 = 0.8653, x3 = 0.125	1.406
x2 = 0.9072, x3 = 0.0792	1.343
x2 = 0.9667, x3 = 0.0134	1.317

CCCC[n+]1ccn(C)c1C.F[B-](F)(F)F + CC[N+](C)(CC)CCOC.F[B-](F)(F)F
100 kPa, x2 = 0
Conditions	electrical conductivity [S/m]
333.15 K	0.335
338.15 K	0.447
343.15 K	0.53
348.15 K	0.63

CCOS(=O)(=O)[O-].CC[n+]1ccn(C)c1 + CCC(C)O
101 kPa
Conditions	viscosity [mPa·s]
298.15 K, x1 = 0.2027	6.91
298.15 K, x1 = 0.6944	39.6
298.15 K, x1 = 0.7957	54.2
303.15 K, x1 = 0.2027	6.81
303.15 K, x1 = 0.4906	17.37
303.15 K, x1 = 0.8916	57.3
308.15 K, x1 = 0.3936	9.98
308.15 K, x1 = 0.8916	46.8
313.15 K, x1 = 0.2027	4.59
313.15 K, x1 = 0.3936	9.48
313.15 K, x1 = 0.5916	17.67
313.15 K, x1 = 1	49.4
318.15 K, x1 = 0.2027	4.03
323.15 K, x1 = 0.2937	5

CC(=O)[O-].Cn1cc[nH+]c1 + O
Conditions	electrical conductivity [S/m]	viscosity [mPa·s]
293.15 K, 101.3 kPa, x2 = 0.0705	0.905	–
293.15 K, 101.3 kPa, x2 = 0.1339	1.176	–
293.15 K, 101.3 kPa, x2 = 0.8407	8.771	–
293.15 K, 101.3 kPa, x2 = 0.9035	6.875	–
298.15 K, 101 kPa, x1 = 0.0051	1.17	–
298.15 K, 101 kPa, x1 = 0.0151	2.49	–
298.15 K, 101 kPa, x2 = 0.9502	3.87	–
298.15 K, 101 kPa, x2 = 0.98	2.71	–
303.15 K, 101 kPa, x2 = 0	–	5.91
313.15 K, 101 kPa, x2 = 0	–	4.395

CCOS(=O)(=O)[O-].CC[n+]1ccn(C)c1 + CCO
298.15 K, 101 kPa
Conditions	viscosity [mPa·s]
x2 = 0.2187	47.7
x2 = 0.7508	5.08
x2 = 0.7866	4.31

CCCC[n+]1ccn(C)c1.O=[N+]([O-])[O-] + CCCCO
101 kPa
Conditions	viscosity [mPa·s]
283.15 K, x2 = 0.456	47.92
288.15 K, x2 = 0.26	94.8
288.15 K, x2 = 0.565	23.86
293.15 K, x2 = 0.565	19.88
293.15 K, x2 = 0.848	5.88
298.15 K, x2 = 0.129	97
298.15 K, x2 = 0.456	25.72
298.15 K, x2 = 0.565	16.79
303.15 K, x2 = 0.26	43.31
303.15 K, x2 = 0.565	14.34
308.15 K, x2 = 0.129	56.32
308.15 K, x2 = 0.26	35.31
308.15 K, x2 = 0.65	8.91
308.15 K, x2 = 0.753	5.59
313.15 K, x2 = 0.361	21.55
313.15 K, x2 = 0.565	10.76
313.15 K, x2 = 0.65	7.8
313.15 K, x2 = 0.753	4.91
318.15 K, x2 = 0.26	24.53
318.15 K, x2 = 0.565	9.44
323.15 K, x2 = 0.361	15.85
323.15 K, x2 = 0.753	3.92
333.15 K, x2 = 0.361	12.03
333.15 K, x2 = 0.565	6.56

CCCCn1cc[n+](CCOCCOCCOCC[n+]2ccn(CCCC)c2)c1.O=S(=O)([N-]S(=O)(=O)C(F)(F)F)C(F)(F)F.O=S(=O)([N-]S(=O)(=O)C(F)(F)F)C(F)(F)F + CC[n+]1ccn(C)c1.N#C[N-]C#N + O=S(=O)([N-]S(=O)(=O)C(F)(F)F)C(F)(F)F.[Li+]
100 kPa, x1 = 0.1386, x2 = 0.7575
Conditions	electrical conductivity [S/m]
298 K	0.61
303 K	0.773
313 K	0.902
323 K	1.18
333 K	1.51
344 K	1.89

CCCOCCn1cc[n+](C)c1.O=S(=O)([N-]S(=O)(=O)C(F)(F)F)C(F)(F)F + O
101 kPa, x1 = 0.8306
Conditions	viscosity [mPa·s]
283 K	78.3
298.1 K	38.7

CCOS(=O)(=O)[O-].CC[n+]1ccn(C)c1 + OCCN(CCO)CCO
Conditions	viscosity [mPa·s]
303.15 K, 100 kPa, x2 = 0	75.7

CCCCCCCCn1cc[n+](C)c1C.[Cl-] + O
298 K, 101 kPa
Conditions	electrical conductivity [S/m]
x1 = 2.703e-05	0.02
x1 = 0.0001369	0.09
x1 = 0.000245	0.14
x1 = 0.0003531	0.2
x1 = 0.0004899	0.27
x1 = 0.0007347	0.32
x1 = 0.0008984	0.41
x1 = 0.001197	0.48
x1 = 0.001468	0.58
x1 = 0.001766	0.69
x1 = 0.002039	0.79
x1 = 0.002391	0.88
x1 = 0.002715	0.99
x1 = 0.003203	1.14
x1 = 0.003772	1.32
x1 = 0.004474	1.48
x1 = 0.005202	1.66
x1 = 0.005876	1.77
x1 = 0.006575	1.9
x1 = 0.007219	2.02
x1 = 0.007783	2.11
x1 = 0.008319	2.19
x1 = 0.0088	2.26
x1 = 0.009202	2.34
x1 = 0.009496	2.39

CC(=O)[O-].Cn1cc[nH+]c1 + CC(=O)[O-].C[NH+]1CCCC1
Conditions	viscosity [mPa·s]
298.15 K, 100 kPa, x1 = 1	6.22

CCOS(=O)(=O)[O-].CC[n+]1ccn(C)c1 + O=C([O-])CC(O)(CC(=O)[O-])C(=O)[O-].[K+].[K+].[K+] + O
viscosity [mPa·s], 101.3 kPa
Conditions	293.15 K	298.15 K	303.15 K	308.15 K	313.15 K
x2 = 0, x1 = 0.001795	1.073	0.96	0.845	0.751	0.679
x2 = 0, x1 = 0.002698	1.107	0.987	0.876	0.788	0.709
x2 = 0, x1 = 0.003589	1.136	1.016	0.899	0.811	0.727
